The numbers were not newly measured in patent publication US8952001B2, “Amino-heteroaryl derivatives as HCN blockers” (Merck Sharp & Dohme Corp., priority 2009, dated 2015), which cites them from elsewhere.

In data set [1] the test system is nerve injured myelinated DRG.
Data set [2] relates to mechanical allodynia. Particulars: local administration to the sciatic nerve 4 h after surgery in rats; Brennan model.
Data set [3] concerns mechanical allodynia. Particulars: intraperitoneal administration; Chung/von Frey.
The subject of another data set is allodynia. Particulars: rat CFA model of inflammatory pain.
A further data set has as its system spontaneous pain. Particulars: rat, mild thermal injury model.
Data set [4] deals with ectopic discharges in A-beta and A-delta fibres. Particulars: without causing conduction block.

Molecules are shown by their SMILES. Read-outs that look alike come from different tables or passages of the source.

For the molecule `CCN(c1ccccc1)c1cc(=NC)n(C)c(C)n1.Cl` [ZD 7288], the spontaneous activity result in data set [1] was “reduces spontaneous activity”. Further, the mechanical allodynia result in the data set on mechanical allodynia [2] is recorded as “attenuates mechanical allodynia”; with mechanical allodynia [3], “dose-dependently reverses mechanical allodynia”. For the same molecule, in the data set on allodynia, the allodynia result was “suppresses allodynia”. The spontaneous pain entry in the data set with spontaneous pain is given as “blocks spontaneous pain”. The “firing frequency of ectopic discharges” value in data set [4] is recorded as “reduced the firing frequency of ectopic discharges”.
